Source: patent US20220226337A1 (Gilead Sciences, Inc., priority 2018, published 2022)

molecular target: T1, α4β7 integrin interaction with MadCAM-1 (RPMI8866 cells) (Homo sapiens, UniProt P13612+P26010); assay: α4β7 Integrin Cell Capture Assay; format: cell-based; details: capture of α4β7 integrin expressing RPMI8866 cells on recombinant MadCAM-1 extracellular domain-coated plate; 0.5 mM MnCl2
T1 construct: α4β7 integrin expressing cells; endogenous in cells; host or cells: RPMI8866 cells
T1 sequence (P13612 34-1032): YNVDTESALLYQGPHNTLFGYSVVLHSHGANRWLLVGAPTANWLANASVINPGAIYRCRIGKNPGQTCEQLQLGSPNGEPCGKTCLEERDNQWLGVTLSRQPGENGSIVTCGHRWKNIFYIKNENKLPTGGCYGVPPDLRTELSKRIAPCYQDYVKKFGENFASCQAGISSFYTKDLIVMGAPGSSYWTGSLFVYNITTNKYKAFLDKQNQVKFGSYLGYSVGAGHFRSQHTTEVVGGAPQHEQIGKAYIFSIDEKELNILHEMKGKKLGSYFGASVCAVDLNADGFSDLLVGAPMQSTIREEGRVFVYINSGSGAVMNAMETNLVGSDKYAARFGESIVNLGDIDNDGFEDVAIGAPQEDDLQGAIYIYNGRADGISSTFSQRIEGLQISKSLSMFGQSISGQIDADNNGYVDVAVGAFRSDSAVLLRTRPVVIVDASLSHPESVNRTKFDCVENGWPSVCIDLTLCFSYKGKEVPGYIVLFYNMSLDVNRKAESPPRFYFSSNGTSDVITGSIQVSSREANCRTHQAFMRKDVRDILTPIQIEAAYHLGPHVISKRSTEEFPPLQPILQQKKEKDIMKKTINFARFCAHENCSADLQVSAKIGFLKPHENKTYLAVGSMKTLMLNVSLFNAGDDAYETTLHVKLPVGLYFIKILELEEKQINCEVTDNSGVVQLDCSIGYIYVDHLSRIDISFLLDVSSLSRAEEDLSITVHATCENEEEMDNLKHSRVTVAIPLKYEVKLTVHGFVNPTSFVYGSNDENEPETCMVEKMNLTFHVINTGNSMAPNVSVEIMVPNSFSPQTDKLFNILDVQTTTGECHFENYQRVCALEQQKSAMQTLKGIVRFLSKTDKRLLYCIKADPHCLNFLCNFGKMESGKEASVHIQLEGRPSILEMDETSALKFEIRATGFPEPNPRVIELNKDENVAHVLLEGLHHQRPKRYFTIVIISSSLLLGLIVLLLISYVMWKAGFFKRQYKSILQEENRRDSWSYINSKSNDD
T1 sequence (P26010 20-798): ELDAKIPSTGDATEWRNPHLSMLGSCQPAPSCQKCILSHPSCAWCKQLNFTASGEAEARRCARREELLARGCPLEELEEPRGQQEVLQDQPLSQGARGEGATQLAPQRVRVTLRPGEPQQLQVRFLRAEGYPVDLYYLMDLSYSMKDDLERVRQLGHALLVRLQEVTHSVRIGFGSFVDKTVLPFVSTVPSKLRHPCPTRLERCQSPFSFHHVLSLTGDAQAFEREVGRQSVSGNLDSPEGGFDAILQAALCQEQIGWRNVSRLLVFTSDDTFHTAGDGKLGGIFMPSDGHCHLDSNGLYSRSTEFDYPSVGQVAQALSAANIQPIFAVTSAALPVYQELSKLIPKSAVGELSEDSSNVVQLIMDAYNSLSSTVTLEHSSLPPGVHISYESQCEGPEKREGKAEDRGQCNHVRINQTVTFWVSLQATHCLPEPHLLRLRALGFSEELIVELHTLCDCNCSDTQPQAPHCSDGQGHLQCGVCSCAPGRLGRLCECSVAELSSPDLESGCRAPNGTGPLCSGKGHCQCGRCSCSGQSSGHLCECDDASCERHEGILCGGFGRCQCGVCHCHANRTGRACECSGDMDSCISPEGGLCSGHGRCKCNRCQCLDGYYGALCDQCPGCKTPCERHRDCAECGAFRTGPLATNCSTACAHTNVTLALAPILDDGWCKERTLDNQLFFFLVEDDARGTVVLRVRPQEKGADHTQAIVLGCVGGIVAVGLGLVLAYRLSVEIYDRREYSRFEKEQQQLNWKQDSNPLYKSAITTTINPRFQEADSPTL
How it was run: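 RPMI8866 cells (0.5×10^6 cells/mL in DMEM + 0.5% FBS + 0.5 mM MnCl2) preincubated with compound 1 h at 37 °C, then allowed to adhere 30 min at 37 °C to plates coated with MAdCAM-1 extracellular domain (1.0 μg/mL). Bound cells fixed with 2% glutaraldehyde, Hoechst-stained, imaged and counted; EC50 from cell count versus concentration.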

EC50 [nM]	SMILES
9.18	CCOCc1cc(OC)c(-c2ccc(C[C@H](NC(=O)c3c(F)cccc3F)C(=O)O)c3c2OCCC3)c(OC)c1 [Example 71, (S)-2-(2,6-difluorobenzamido)-3-(8-(4-(ethoxymethyl)-2,6-dimethoxyphenyl)chroman-5-yl)propanoic acid]
53.3	N#Cc1ccc(-c2ccc(C[C@H](NC(=O)c3c(F)cccc3F)C(=O)O)c3c2OCCC3)c(Cl)c1 [Example 72, (S)-3-(8-(2-chloro-4-cyanophenyl)chroman-5-yl)-2-(2,6-difluorobenzamido)propanoic acid]
17.3	Cn1cc(-c2ccc(C[C@H](NC(=O)c3c(F)cccc3F)C(=O)O)c3c2OCCC3)c(=O)n(C)c1=O [Example 73, (S)-2-(2,6-difluorobenzamido)-3-(8-(1,3-dimethyl-2,4-dioxo-1,2,3,4-tetrahydropyrimidin-5-yl)chroman-5-yl)propanoic acid]
79.7	O=C(N[C@@H](Cc1ccc(-c2c(Cl)cc(F)cc2Cl)c2c1CCCO2)C(=O)O)c1c(F)cccc1F [Example 74, (S)-3-(8-(2,6-dichloro-4-fluorophenyl)chroman-5-yl)-2-(2,6-difluorobenzamido)propanoic acid]
67.7	O=C(N[C@@H](Cc1ccc(-c2c(Cl)cc(F)cc2Cl)c2c1CCCO2)C(=O)O)c1c(Cl)cccc1Cl [Example 75, (S)-3-(8-(2,6-dichloro-4-fluorophenyl)chroman-5-yl)-2-(2,6-dichlorobenzamido)propanoic acid]
70.3	O=C(N[C@@H](Cc1ccc(-c2c(Cl)cc(F)cc2Cl)c2c1C1CC1CO2)C(=O)O)c1c(F)cccc1F (stereo partly drawn) [Example 77, (2S)-3-(4-(2,6-dichloro-4-fluorophenyl)-1,1a,2,7b-tetrahydrocyclopropa [c]chromen-7-yl)-2-(2,6-difluorobenzamido)propanoic acid]
67.7	O=C(N[C@@H](Cc1ccc(-c2c(Cl)cc(F)cc2Cl)c2c1C1CC1CO2)C(=O)O)c1c(Cl)cccc1Cl (stereo partly drawn) [Example 80, (2S)-3-(4-(2,6-dichloro-4-fluorophenyl)-1,1a,2,7b-tetrahydrocyclopropa[c]chromen-7-yl)-2-(2,6-dichlorobenzamido)propanoic acid]
35.5	O=C(N[C@@H](Cc1ccc(-c2c(Cl)cc(F)cc2Cl)c2c1CCCO2)C(=O)O)c1c(F)cc(N2CCOC[C@@H]2C(F)(F)F)cc1F [Example 83, (S)-3-(8-(2,6-dichloro-4-fluorophenyl)chroman-5-yl)-2-(2,6-difluoro-4-((R)-3-(trifluoromethyl)morpholino)benzamido)propanoic acid]
64	O=C(N[C@@H](Cc1ccc(-c2c(Cl)cc(F)cc2Cl)c2c1CCCO2)C(=O)O)c1c(F)cc(N[C@H](c2ccccc2)C(F)(F)F)cc1F [Example 84, (S)-3-(8-(2,6-dichloro-4-fluorophenyl)chroman-5-yl)-2-(2,6-difluoro-4-(((R)-2,2,2-trifluoro-1-phenylethyl)amino)benzamido)propanoic acid]
0.53	Cn1cc(-c2ccc(C[C@H](NC(=O)c3c(F)cc(N[C@H](c4ccccc4)C(F)(F)F)cc3F)C(=O)O)c3c2OCCC3)c(=O)n(C)c1=O [Example 85, (S)-2-(2,6-difluoro-4-(((R)-2,2,2-trifluoro-1-phenylethyl)amino)benzamido)-3-(8-(1,3-dimethyl-2,4-dioxo-1,2,3,4-tetrahydropyrimidin-5-yl)chroman-5-yl) propanoic acid]
3.34	O=C(N[C@@H](Cc1ccc(-c2ncccc2C(F)(F)F)c2c1CCCO2)C(=O)O)c1c(F)cc(N[C@H](c2ccccc2)C(F)(F)F)cc1F [Example 86, (S)-2-(2,6-difluoro-4-(((R)-2,2,2-trifluoro-1-phenylethyl)amino)benzamido)-3-(8-(3-(trifluoromethyl)pyridin-2-yl)chroman-5-yl)propanoic acid]
12.8	N#Cc1cc(Cl)c(-c2ccc(C[C@H](NC(=O)c3c(F)cc(N[C@H](c4ccccc4)C(F)(F)F)cc3F)C(=O)O)c3c2OCCC3)c(Cl)c1 [Example 87, (S)-3-(8-(2,6-dichloro-4-cyanophenyl)chroman-5-yl)-2-(2,6-difluoro-4-(((R)-2,2,2-trifluoro-1-phenylethyl)amino)benzamido)propanoic acid]
2.42	C[C@@H](Nc1cc(F)c(C(=O)N[C@@H](Cc2ccc(-c3cn(C)c(=O)n(C)c3=O)c3c2CCCO3)C(=O)O)c(F)c1)C(F)(F)F [Example 88, (S)-2-(2,6-difluoro-4-(((R)-1,1,1-trifluoropropan-2-yl)amino)benzamido)-3-(8-(1,3-dimethyl-2,4-dioxo-1,2,3,4-tetrahydropyrimidin-5-yl)chroman-5-yl)propanoic acid]
8.47	C[C@@H](Nc1cc(F)c(C(=O)N[C@@H](Cc2ccc(-c3ncccc3C(F)(F)F)c3c2CCCO3)C(=O)O)c(F)c1)C(F)(F)F [Example 89, (S)-2-(2,6-difluoro-4-(((R)-1,1,1-trifluoropropan-2-yl)amino)benzamido)-3-(8-(3-(trifluoromethyl)pyridin-2-yl)chroman-5-yl)propanoic acid]
16	O=C(N[C@@H](Cc1ccc(-c2cc(F)c(F)c3c2OCCC3)c2c1CCCO2)C(=O)O)c1c(Cl)cccc1Cl [Example 90, (S)-2-(2,6-dichlorobenzamido)-3-(5′,6′-difluoro-[8,8′-bichroman]-5-yl)propanoic acid]
11	C[C@@H](Nc1cc(F)c(C(=O)N[C@@H](Cc2ccc(-c3c(Cl)cc(C#N)cc3Cl)c3c2CCCO3)C(=O)O)c(F)c1)C(F)(F)F [Example 91, (S)-3-(8-(2,6-dichloro-4-cyanophenyl)chroman-5-yl)-2-(2,6-difluoro-4-(((R)-1,1,1-trifluoropropan-2-yl)amino)benzamido)propanoic acid]
9.19	CS(=O)(=O)Nc1cc(F)c(C(=O)N[C@@H](Cc2ccc(-c3c(Cl)cc(F)cc3Cl)c3c2CCCO3)C(=O)O)c(F)c1 [Example 92, (S)-3-(8-(2,6-dichloro-4-fluorophenyl)chroman-5-yl)-2-(2,6-difluoro-4-(methylsulfonamido)benzamido)propanoic acid]
491	COc1cc(C#Cc2ccc(OC(F)(F)F)cc2)cc(OC)c1-c1ccc(C[C@H](NC(=O)c2c(Cl)cccc2Cl)C(=O)O)c2c1OCCC2 [Example 93, (S)-2-(2,6-dichlorobenzamido)-3-(8-(2,6-dimethoxy-4-((4-(trifluoromethoxy)phenyl)ethynyl)phenyl)chroman-5-yl)propanoic acid]
625	CC1(C)CCc2c(C[C@H](NC(=O)c3c(Cl)cccc3Cl)C(=O)O)ccc(-c3c(Cl)cc(F)cc3Cl)c2O1 [Example 95, (S)-3-(8-(2,6-dichloro-4-fluorophenyl)-2,2-dimethylchroman-5-yl)-2-(2,6-dichlorobenzamido)propanoic acid]
42.3	O=C(N[C@@H](Cc1ccc(-c2c(Cl)cc(F)cc2Cl)c2c1OCCCO2)C(=O)O)c1c(F)cccc1F [Example 96, (S)-3-(9-(2,6-dichloro-4-fluorophenyl)-3,4-dihydro-2H-benzo[b][1,4]dioxepin-6-yl)-2-(2,6-difluorobenzamido)propanoic acid]
